The text below walks through data of patent publication EP0428423A2, “Aryloxy alkyl benzenes, processes for their preparation and pharmaceutical compositions containing them” (LIPHA S.A., priority 1989, dated 1991).

Assay [1] concerns rats mâles SHR (souche OKAMOTO). Kind of assay: Antihypertensive action in the non-anaesthetised SHR rat (systolic blood pressure, sphygmomanometric method). The assay is classed as in vivo. The following applies: 60 mg/kg PO, acute or chronic not given, 24 h after dosing. An excerpt:
L'étude a été effectuée sur des lots de rats mâles SHR (souche OKAMOTO) âgés de 16 semaines. La pression artérielle systolique est déterminée par la méthode sphygmomanométrique (électro sphygmogra- phe NARCO biosystems type PE 300). Les mesures de tension sont réalisées 24 heures après administration d'un composé de formule générale I, la pression artérielle systolique est calculée à partir de la moyenne de 6 à 8 mesures.

Assay [2] concerns plasmas riches en plaquettes provenant de sang de rat. Kind of assay: Platelet anti-aggregation in vitro, ADP-induced (Born aggregometer). The assay is classed as cell-based. The following applies: in vitro, aggregating agent ADP, rat platelet-rich plasma, 37°; M not defined in the text; mM printed only in the TICLOPIDINE line. The protocol:
Les études ont été réalisées sur des plasmas riches en plaquettes provenant de sang de rat, l'agrégation étant induite par addition d'acide Adénosine diphosphorique. Les courbes néphélométriques d'agrégation sont obtenues en utilisant un agrégomètre de type BORN, le plasma étant placé en incubation à 37° avec agitation continue de 1100 t/mn (cf. BORN G.V.R et CROSS J. - J. Physiol. 168 (1962) 178.

The target of a further assay is T1, lipoxygénase de soja (Glycine max, UniProt P08170).
T1 sequence (P08170 1-839): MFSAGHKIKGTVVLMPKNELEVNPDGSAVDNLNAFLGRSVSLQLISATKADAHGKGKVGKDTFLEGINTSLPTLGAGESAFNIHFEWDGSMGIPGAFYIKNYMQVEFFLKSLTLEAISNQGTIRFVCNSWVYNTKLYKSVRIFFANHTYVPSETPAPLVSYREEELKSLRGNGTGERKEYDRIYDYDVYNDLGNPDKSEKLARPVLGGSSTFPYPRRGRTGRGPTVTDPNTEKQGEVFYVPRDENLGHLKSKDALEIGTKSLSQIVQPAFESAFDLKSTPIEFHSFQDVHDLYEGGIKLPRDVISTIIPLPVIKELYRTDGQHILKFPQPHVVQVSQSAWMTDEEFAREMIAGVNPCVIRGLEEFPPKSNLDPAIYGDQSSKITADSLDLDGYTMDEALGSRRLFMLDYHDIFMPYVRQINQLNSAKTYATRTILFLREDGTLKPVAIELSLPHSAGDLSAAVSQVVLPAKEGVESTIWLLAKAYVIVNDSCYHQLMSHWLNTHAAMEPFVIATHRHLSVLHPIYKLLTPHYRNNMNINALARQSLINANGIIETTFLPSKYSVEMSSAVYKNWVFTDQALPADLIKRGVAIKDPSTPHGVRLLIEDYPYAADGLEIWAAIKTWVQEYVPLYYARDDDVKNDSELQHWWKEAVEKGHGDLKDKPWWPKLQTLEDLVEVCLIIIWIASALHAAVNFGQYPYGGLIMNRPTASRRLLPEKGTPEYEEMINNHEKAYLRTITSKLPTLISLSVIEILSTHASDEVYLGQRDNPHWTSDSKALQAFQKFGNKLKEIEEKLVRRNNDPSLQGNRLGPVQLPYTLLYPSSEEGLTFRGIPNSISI
Put plainly: Anti-lipoxygenase action on soybean lipoxygenase. The assay is classed as biochemical. The text has this: L'action anti-lipoxygénase a été étudiée sur la lipoxygénase de soja selon la méthode décrite par W.L SMITH et W.E LANDS (J. Biol. Chem. 247 (1972) 1038-1047)

The next assay has as its system RAT. Put plainly: Diuretic activity in the rat (hourly urine volume, sodium and potassium assay). The assay is classed as in vivo. The following applies: po; R = RAT; diuretic activity; read-out: Dose minimale active. An excerpt:
(§1) d'urine sont déterminés toutes les heures. Le dosage de sodium et du potassium est effectué par spectrophotométrie.

Another assay deals with SOURIS. Put plainly: Diuretic activity in the mouse (hourly urine volume, sodium and potassium assay). The assay is classed as in vivo. The following applies: S = SOURIS.
Source text: as §1

Another assay addresses T2, COTRANSPORT Na-K (Homo sapiens, UniProt P55011).
T2 construct: systèmes de transport du sodium et du potassium des érythrocytes humains; endogenous in cells; host or cells: human erythrocytes
T2 sequence (P55011 1-1212): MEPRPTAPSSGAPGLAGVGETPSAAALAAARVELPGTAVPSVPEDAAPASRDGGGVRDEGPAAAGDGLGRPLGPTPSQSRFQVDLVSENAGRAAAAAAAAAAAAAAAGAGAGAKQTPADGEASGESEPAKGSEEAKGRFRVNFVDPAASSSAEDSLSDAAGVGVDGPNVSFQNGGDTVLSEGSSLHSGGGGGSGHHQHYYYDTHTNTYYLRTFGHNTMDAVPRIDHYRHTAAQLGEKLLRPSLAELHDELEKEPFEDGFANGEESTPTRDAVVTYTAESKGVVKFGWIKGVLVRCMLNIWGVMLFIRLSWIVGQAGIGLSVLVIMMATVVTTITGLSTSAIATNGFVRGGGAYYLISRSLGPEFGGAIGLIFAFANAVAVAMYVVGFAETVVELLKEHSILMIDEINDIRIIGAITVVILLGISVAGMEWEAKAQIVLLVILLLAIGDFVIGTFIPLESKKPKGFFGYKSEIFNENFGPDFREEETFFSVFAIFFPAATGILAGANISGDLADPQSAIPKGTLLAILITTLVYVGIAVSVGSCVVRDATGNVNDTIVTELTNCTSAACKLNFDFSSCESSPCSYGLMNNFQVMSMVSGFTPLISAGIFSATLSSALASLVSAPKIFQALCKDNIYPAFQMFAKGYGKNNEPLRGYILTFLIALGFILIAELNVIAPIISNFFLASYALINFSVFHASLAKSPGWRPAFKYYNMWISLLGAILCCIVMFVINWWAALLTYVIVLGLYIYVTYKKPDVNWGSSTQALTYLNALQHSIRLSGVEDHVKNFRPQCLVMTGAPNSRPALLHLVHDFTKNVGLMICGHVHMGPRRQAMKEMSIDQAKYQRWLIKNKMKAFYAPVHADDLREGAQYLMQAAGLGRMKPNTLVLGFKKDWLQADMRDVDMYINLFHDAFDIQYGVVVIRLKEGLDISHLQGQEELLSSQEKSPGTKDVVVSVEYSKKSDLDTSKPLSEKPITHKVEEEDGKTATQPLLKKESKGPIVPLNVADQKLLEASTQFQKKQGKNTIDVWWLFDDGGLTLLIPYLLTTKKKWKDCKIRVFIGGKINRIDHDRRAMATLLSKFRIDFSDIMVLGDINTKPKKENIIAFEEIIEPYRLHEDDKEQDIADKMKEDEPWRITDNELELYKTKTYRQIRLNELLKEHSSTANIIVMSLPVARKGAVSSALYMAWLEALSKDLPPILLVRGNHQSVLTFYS
Put plainly: Na-K cotransport of human erythrocytes. Format: cell-based, ERYTHROCYTES HUMAINS. As to conditions: human erythrocytes. An excerpt: Cet effet a été étudié selon la méthodologie décrite par G. GARAY et coll. dans Naunyn-Schmidberg's Arch. Pharmakol. […] Pharm.

The target of the next assay is T3, ECHANGEUR D'ANIONS (Homo sapiens, UniProt P02730).
T3 construct: systèmes de transport du sodium et du potassium des érythrocytes humains; endogenous in cells; host or cells: human erythrocytes
T3 sequence (P02730 1-911): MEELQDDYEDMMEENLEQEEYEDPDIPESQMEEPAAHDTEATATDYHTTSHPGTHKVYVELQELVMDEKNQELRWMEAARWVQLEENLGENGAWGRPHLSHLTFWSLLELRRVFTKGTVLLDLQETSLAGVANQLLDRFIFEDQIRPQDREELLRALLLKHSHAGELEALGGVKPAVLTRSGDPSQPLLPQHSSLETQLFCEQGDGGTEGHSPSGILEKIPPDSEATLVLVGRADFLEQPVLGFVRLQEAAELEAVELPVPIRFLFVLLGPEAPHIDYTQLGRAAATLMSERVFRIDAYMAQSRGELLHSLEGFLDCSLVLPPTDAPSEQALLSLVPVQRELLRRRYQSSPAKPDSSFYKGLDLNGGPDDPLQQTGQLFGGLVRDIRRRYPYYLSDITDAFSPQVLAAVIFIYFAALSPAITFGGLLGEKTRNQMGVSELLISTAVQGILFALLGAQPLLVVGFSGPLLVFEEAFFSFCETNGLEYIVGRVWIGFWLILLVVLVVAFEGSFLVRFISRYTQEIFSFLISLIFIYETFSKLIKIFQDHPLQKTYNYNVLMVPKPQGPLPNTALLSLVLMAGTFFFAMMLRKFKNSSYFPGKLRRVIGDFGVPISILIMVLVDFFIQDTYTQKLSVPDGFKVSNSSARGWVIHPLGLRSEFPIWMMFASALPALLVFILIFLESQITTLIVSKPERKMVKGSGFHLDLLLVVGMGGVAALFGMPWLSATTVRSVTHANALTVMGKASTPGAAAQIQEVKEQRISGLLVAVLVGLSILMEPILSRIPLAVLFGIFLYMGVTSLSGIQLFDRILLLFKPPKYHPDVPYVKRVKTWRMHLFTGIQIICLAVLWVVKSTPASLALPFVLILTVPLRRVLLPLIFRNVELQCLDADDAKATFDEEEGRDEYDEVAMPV
Kind of assay: Anion exchanger of human erythrocytes. Format: cell-based, ERYTHROCYTES HUMAINS. The text has this: Cet effet a été étudié selon la méthodologie décrite par G. GARAY et coll. dans Naunyn-Schmidberg's Arch. Pharmakol. 334 (1986) 202-209 et dans Bioch. Pharm. 33 (1984) 2013-2020.

The mark [3] stands for this setting: PO, at the dose (minimal active dose).

On to `NS(=O)(=O)c1cc2c(cc1Cl)NCNS2(=O)=O` [HYDROCHLOROTHIAZIDE], for which, in assay [1], the “Variation de l'effet anti-hyper-tenseur 24 heures après produit” value is recorded as “FUROSEMIDE non actif HYDROCHLOROTHIAZIDE non actif”.
As to `COc1cccc(CCOc2ccc(F)cc2)c1` [ex 169], the “M à 50” value in assay [2] is given as “inactif”. Further, the “ACTIVITE ANTI-LIPOXYGENASE IC 50” value on lipoxygénase de soja is listed as “Inactif”. In the assay on RAT, the minimal effective dose worked out at 12 mg/kg. Moreover, in the assay on SOURIS (setting [3]), the “Pouvoir diurétique en %” value is “Inactif” and the “Rapport Na/K en %” value is “Inactif”. For the same compound, at COTRANSPORT Na-K, the “EFFET SUR LE COTRANSPORT Na-K IC 50” value is listed as “Non actif”. In addition, on ECHANGEUR D'ANIONS, the “EFFET SUR L'ECHANGEUR D'ANIONS IC 50” value was “Non actif”.
`NS(=O)(=O)c1cc(C(=O)O)c(NCc2ccco2)cc1Cl` [FUROSEMIDE, reference compound]: the “Variation de l'effet anti-hyper-tenseur 24 heures après produit” value in assay [1] is “FUROSEMIDE non actif HYDROCHLOROTHIAZIDE non actif”. Besides, the minimal effective dose turned out to be 12 mg/kg in the assay on RAT and 25 mg/kg with SOURIS (Mus musculus, po, diuretic activity, read-out: Dose minimale active).
